Source: patent publication US11566007B2, “Ras inhibitors” (Revolution Medicines, Inc., priority 2019, dated 2023)

How the values were obtained:
KRAS G12D = KRAS G12D (Homo sapiens (Human), UniProt P01116+P62937, G12D); test: Ras-Raf (BRAF RBD) disruption / FRET / MOA assay, KRAS G12D; format: biochemical; settings: Ras-Raf disruption/FRET/MOA assay; class symbols; read-out: KRAS G12D FRET data IC50
Procedure, shortened: (§1)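 TR-FRET read-out: a drop in ratio relative to DMSO wells marks disruption of the Ras:RAF complex, reported as IC50. Compounds (3-fold series, 10 points, top 30 μM final) incubated 3 h at 25° C before Eu-anti-His 10 nM and APC-anti-GST 50 nM, 1.5 h more.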

NRAS G12C = NRAS G12C (Homo sapiens (Human), UniProt P01111+P62937, G12C); test: Ras-Raf (BRAF RBD) disruption / FRET / MOA assay, NRAS G12C; format: biochemical; settings: read-out: IC50* NRAS G12C FRET data
Sequence of NRAS G12C (P01111 whole entry G12C): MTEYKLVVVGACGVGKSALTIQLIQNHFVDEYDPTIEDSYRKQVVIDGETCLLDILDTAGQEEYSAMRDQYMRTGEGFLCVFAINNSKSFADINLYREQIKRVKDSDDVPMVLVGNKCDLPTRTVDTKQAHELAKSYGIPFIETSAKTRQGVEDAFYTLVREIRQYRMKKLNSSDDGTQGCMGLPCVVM
Sequence of NRAS G12C (P62937 whole entry): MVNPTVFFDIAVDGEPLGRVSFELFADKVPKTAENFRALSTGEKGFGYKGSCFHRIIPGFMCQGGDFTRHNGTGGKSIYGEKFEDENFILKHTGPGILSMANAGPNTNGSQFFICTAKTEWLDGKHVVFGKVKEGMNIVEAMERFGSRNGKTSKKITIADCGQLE
Procedure, shortened: as §1

K-Ras G12C = K-Ras G12C (Homo sapiens (Human), UniProt P01116+P62937, G12C); test: Ras-Raf (BRAF RBD) disruption / FRET / MOA assay, KRAS G12C; format: biochemical; settings: KRAS G12C; Ras-Raf disruption/FRET/MOA assay; read-out: IC50* KRAS G12C FRET data
Sequence of K-Ras G12C (P01116-2 other isoform, or with tags, fused parts or gaps G12C): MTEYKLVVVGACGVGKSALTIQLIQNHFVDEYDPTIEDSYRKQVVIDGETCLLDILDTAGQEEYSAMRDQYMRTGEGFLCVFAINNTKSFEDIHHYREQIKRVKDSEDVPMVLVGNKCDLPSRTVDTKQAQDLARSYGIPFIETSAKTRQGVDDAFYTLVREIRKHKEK
Sequence of K-Ras G12C (P62937 whole entry): as the sequence (P62937 whole entry) above
Procedure, shortened: as §1

KRAS G13D = KRAS G13D (Homo sapiens (Human), UniProt P01116+P62937, G13D); test: Ras-Raf (BRAF RBD) disruption / FRET / MOA assay, KRAS G13D; format: biochemical; settings: read-out: IC50* KRAS G13D FRET data
Sequence of KRAS G13D (P01116-2 other isoform, or with tags, fused parts or gaps G13D): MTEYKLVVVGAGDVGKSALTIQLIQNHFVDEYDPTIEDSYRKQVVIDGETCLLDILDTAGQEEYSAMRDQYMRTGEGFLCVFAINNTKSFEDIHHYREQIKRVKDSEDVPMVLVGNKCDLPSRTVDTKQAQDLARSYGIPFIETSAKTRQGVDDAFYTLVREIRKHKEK
Sequence of KRAS G13D (P62937 whole entry): as the sequence (P62937 whole entry) above
Procedure, shortened: as §1

KRAS WT = KRAS WT (Homo sapiens (Human), UniProt P01116+P62937); test: Ras-Raf (BRAF RBD) disruption / FRET / MOA assay, KRAS WT; format: biochemical; settings: read-out: IC50* KRAS WT FRET data
Sequence of KRAS WT (P01116-2 other isoform, or with tags, fused parts or gaps): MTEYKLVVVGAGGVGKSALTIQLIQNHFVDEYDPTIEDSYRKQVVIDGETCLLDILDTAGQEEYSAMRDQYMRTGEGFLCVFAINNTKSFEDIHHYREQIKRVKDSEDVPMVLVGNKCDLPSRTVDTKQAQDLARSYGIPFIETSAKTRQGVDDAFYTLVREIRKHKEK
Sequence of KRAS WT (P62937 whole entry): as the sequence (P62937 whole entry) above
Procedure, shortened: as §1

K-Ras G13C = K-Ras G13C (Homo sapiens (Human), UniProt P01116+P62937, G13C); test: Ras-Raf (BRAF RBD) disruption / FRET / MOA assay, KRAS G13C; format: biochemical; settings: KRAS G13C; Ras-Raf disruption/FRET/MOA assay; read-out: IC50* KRAS G13C FRET data
Sequence of K-Ras G13C (P01116-2 other isoform, or with tags, fused parts or gaps G13C): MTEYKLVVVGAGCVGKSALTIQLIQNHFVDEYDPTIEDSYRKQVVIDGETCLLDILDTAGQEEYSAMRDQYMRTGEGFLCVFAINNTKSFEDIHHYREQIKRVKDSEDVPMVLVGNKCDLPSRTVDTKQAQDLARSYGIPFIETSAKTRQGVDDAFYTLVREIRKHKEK
Sequence of K-Ras G13C (P62937 whole entry): as the sequence (P62937 whole entry) above
Procedure, shortened: as §1

NCI-H358 (K-Ras G12C) = test: CellTiter-Glo cell viability assay, NCI-H358; format: cell-based, human; settings: Homo sapiens, NCI-H358, 120 h, NCI-H358, 5-day treatment; class symbols; read-out: Additional H358 Cell Viability assay data (K-Ras G12C, IC50)
Procedure, shortened: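 Cells seeded, compound added directly, 5-day exposure. Plates to RT ~30 min, CellTiter-Glo luminescence read. Normalized to DMSO avg (x100); 4-parameter logistic fit.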

KRAS G12S = KRAS G12S (Homo sapiens (Human), UniProt P01116+P62937, G12S); test: Ras-Raf (BRAF RBD) disruption / FRET / MOA assay, KRAS G12S; format: biochemical; settings: Ras-Raf disruption/FRET/MOA assay; class symbols; read-out: KRAS G12S FRET data IC50
Sequence of KRAS G12S (P01116-2 other isoform, or with tags, fused parts or gaps G12S): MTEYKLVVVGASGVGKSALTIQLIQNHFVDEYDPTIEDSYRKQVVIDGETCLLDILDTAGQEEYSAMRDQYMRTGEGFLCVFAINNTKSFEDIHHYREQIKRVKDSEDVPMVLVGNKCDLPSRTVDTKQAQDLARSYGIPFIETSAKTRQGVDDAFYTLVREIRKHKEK
Sequence of KRAS G12S (P62937 whole entry): as the sequence (P62937 whole entry) above
Procedure, shortened: as §1

[1] = system: NCI-H358 cells (K-Ras G12C); test: Potency assay: pERK in NCI-H358 cells; format: cell-based, human; settings: Homo sapiens, NCI-H358; H358 KRAS G12C; read-out: pERK EC50
Procedure, shortened: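 pERK decrease read by AlphaLISA SureFire p-ERK1/2 or In-Cell Western after 4 h compound exposure at 37 °C, 5% CO2.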

KRAS G12V = KRAS G12V (Homo sapiens (Human), UniProt P01116+P62937, G12V); test: Ras-Raf (BRAF RBD) disruption / FRET / MOA assay, KRAS G12V; format: biochemical; settings: read-out: IC50* KRAS G12V FRET data
Sequence of KRAS G12V (P01116-2 other isoform, or with tags, fused parts or gaps G12V): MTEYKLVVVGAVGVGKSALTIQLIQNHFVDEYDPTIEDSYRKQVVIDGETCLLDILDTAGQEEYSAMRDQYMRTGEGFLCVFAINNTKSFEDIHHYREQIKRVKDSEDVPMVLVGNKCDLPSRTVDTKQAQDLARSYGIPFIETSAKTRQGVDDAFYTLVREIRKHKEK
Sequence of KRAS G12V (P62937 whole entry): as the sequence (P62937 whole entry) above
Procedure, shortened: as §1

Sequence of KRAS G12D (P01116-2 other isoform, or with tags, fused parts or gaps G12D): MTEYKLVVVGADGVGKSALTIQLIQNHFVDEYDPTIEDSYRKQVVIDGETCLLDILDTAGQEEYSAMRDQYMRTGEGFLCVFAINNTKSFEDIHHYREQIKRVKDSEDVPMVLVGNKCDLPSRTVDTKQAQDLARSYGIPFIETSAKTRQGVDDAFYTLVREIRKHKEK
Sequence of KRAS G12D (P62937 whole entry): as the sequence (P62937 whole entry) above

Row | IC50 (KRAS G12D) | IC50 (NRAS G12C) | IC50 (K-Ras G12C) | IC50 (KRAS G13D) | IC50 (KRAS WT) | IC50 (K-Ras G13C) | IC50 (NCI-H358 (K-Ras G12C)) | IC50 (KRAS G12S) | EC50 [1] | IC50 (KRAS G12V) | Compound
1 | 100 to 1000 nM | 10 to 100 nM | 10 to 100 nM | 100 to 1000 nM | 100 to 1000 nM | 100 to 1000 nM | 10 to 100 nM | 100 to 1000 nM | < 5000 nM | 100 to 1000 nM | CCn1c(-c2cccnc2[C@H](C)OC)c2c3cc(ccc31)-c1cc(O)cc(c1)C[C@H](NC(=O)[C@H](C(C)C)N1CC[C@@]3(CCN(C(=O)/C=C/CN(C)C)C3)C1=O)C(=O)N1CCC[C@H](N1)C(=O)OCC(C)(C)C2 (atropisomer, axis not shown) [Example A269]
2 | 1000 to 10000 nM | 100 to 1000 nM | 10 to 100 nM | 100 to 1000 nM | 10 to 100 nM | 10 to 100 nM | 10 to 100 nM | 100 to 1000 nM | < 5000 nM | 100 to 1000 nM | C/C=C/S(=O)(=O)N1CC[C@H](C(=O)N(C)[C@H](C(=O)N[C@H]2Cc3cc(O)cc(c3)-c3ccc4c(c3)c(c(-c3cccnc3[C@H](C)OC)n4CC)CC(C)(C)COC(=O)[C@@H]3CCCN(N3)C2=O)C(C)C)C1 (atropisomer, axis not shown) [Example A280]
3 | > 10000 nM | 1000 to 10000 nM | 1000 to 10000 nM | > 10000 nM | > 10000 nM | 1000 to 10000 nM | 100 to 1000 nM | > 10000 nM | < 5000 nM | 1000 to 10000 nM | CC#CC(=O)N1CC[C@H](C(=O)N(C)[C@H](C(=O)N[C@H]2Cc3nc(ns3)-c3ccc4c(c3)c(c(-c3cccnc3[C@H](C)OC)n4CC)CC(C)(C)COC(=O)[C@@H]3CCCN(N3)C2=O)C(C)C)C1 (atropisomer, axis not shown) [Example A289]
4 | > 10000 nM | 10 to 100 nM | < 10 nM | > 10000 nM | 1000 to 10000 nM | 1000 to 10000 nM | < 10 nM | 1000 to 10000 nM | < 5000 nM | 1000 to 10000 nM | CCn1c(-c2cccnc2[C@H](C)OC)c2c3cc(ccc31)-c1csc(n1)C[C@H](NC(=O)[C@H](C(C)C)N(C)C(=O)[C@H]1CCN(C(=O)C#CC(C)(C)N(C)C)C1)C(=O)N1CCC[C@H](N1)C(=O)OCC(C)(C)C2 (atropisomer, axis not shown) [Example A291]
5 | 100 to 1000 nM | < 10 nM | < 10 nM | 100 to 1000 nM | 100 to 1000 nM | < 10 nM | < 10 nM | 10 to 100 nM | < 5000 nM | 10 to 100 nM | CCn1c(-c2cccnc2[C@H](C)OC)c2c3cc(ccc31)-c1cc(O)cc(c1)C[C@H](NC(=O)[C@H](C(C)C)N(C)C(=O)[C@H]1CCN(C(=O)C#CC(C)(C)N(C)C)C1)C(=O)N1CCC[C@H](N1)C(=O)OCC(C)(C)C2 (atropisomer, axis not shown) [Example A292]

Row | Compound | IC50 (KRAS G12D) | IC50 (NRAS G12C) | IC50 (K-Ras G12C) | IC50 (KRAS G13D) | IC50 (KRAS WT) | IC50 (K-Ras G13C) | IC50 (NCI-H358 (K-Ras G12C)) | IC50 (KRAS G12S) | EC50 [1] | IC50 (KRAS G12V)
6 | CCn1c(-c2cccnc2[C@H](C)OC)c2c3cc(ccc31)-c1cc(O)cc(c1)C[C@H](NC(=O)[C@H](C(C)C)N1CCC3(CN(C(=O)/C=C/CN(C)C)C3)C1=O)C(=O)N1CCC[C@H](N1)C(=O)OCC(C)(C)C2 (atropisomer, axis not shown) [Example A270] | 100 to 1000 nM | < 10 nM | < 10 nM | 10 to 100 nM | 10 to 100 nM | < 10 nM | 10 to 100 nM | 10 to 100 nM | < 5000 nM | 100 to 1000 nM
7 | C=CC(=O)N1CCC2(CC1)CCN([C@H](C(=O)N[C@H]1Cc3cc(O)cc(c3)-c3ccc4c(c3)c(c(-c3cccnc3[C@H](C)OC)n4CC)CC(C)(C)COC(=O)[C@@H]3CCCN(N3)C1=O)C(C)C)C2=O (atropisomer, axis not shown) [Example A296] | 1000 to 10000 nM | 10 to 100 nM | 10 to 100 nM | 10 to 100 nM | 10 to 100 nM | 10 to 100 nM | < 10 nM | 100 to 1000 nM | < 5000 nM | 100 to 1000 nM
